{"source": "patent US5861263A", "about": "“Preparation of preserved entamoeba histolytica antigens without enzymatic inhibitors and their use in immunological methods” (Universidad Autonoma De Nuevo Leon, priority 1992, dated 1999)", "tested_on": "proteases of Entamoeba histolytica crude extract", "test": "Inhibition of crude amebic extract proteolytic activity (hide powder azure)", "assay_type": "biochemical, Entamoeba histolytica HK-9", "conditions": "4 mM iodoacetamide", "procedure": "The second method was carried out according to Rinderknecht et al., Clinica Chimica Acta., 21: 197-203 (1968). The activity corresponding to 6 million trophozoites was tested. Crude amebic extracts, IC:M and IC:MC were used. The samples were resuspended in 1.5 ml 0.05M Tris-HCL pH 7.5 containing 0.5% Triton X-100, and incubated for one hour at 4° C. and centrifuged at 11,000×g for 15 minutes. One ml. of the supernatant was added to 1 ml Tris-HCl containing 5 mg hide powder azure and 100 μl .2M cysteine. The samples were incubated at 37° C. for 1 hour and at the end of which the reaction was stopped by putting the tubes in an ice water bath. They were cold-centrifuged for 5 minutes at 450×g. The absorbency of the supernatants were determined at a wavelength of 600 nm. The former treatment was also done with samples that were incubated in the presence of SDS 2% or 2-ME 5% or 4 mM iodoacetamide. The positive control was taken as the activity obtained with 0.23 mg papain, which was activated with 0.7 mM 2-ME in Tris-HCl 0.05M at pH 8.0 at 4° C. for 10 minutes and then at 37° C. for 15 minutes with frequent stirring. Reaction mixtures without extracts were used as the negative control.", "data": [{"compound": "NC(=O)CI", "note": "[iodoacetamide]", "values": [{"measurement": "inhibition of the activity of the crude extract", "value": "approximately 70%"}]}]}
